Assay results published in patent US9566262B2, “Itch suppression by fucoxanthin” (THE RITSUMEIKAN TRUST, priority 2015, dated 2017).
Entries after “also recorded” stand apart in the source; their conditions may differ.

Tests used:
[1] = system: NC/Nga mice; experiment: Toluidine blue staining of skin specimens, number of TB-positive (mast) cells; format: in vivo; conditions: 0.1% fucoxanthin in Vaseline, 5 weeks, vs Vaseline-applied mice
Protocol: In the same manner as described in Example 2, Vaseline or fucoxanthin and PiCl were applied to NC/Nga mice. At 5 weeks after starting application of Vaseline or fucoxanthin, the mice were sacrificed, the mice skins were fixed with 4% paraformaldehyde and embedded in paraffin. The skin specimen was stained with toluidine blue (TB) (pH=4.1). Imaging of the stained specimen was performed by Virtual Slide System (Olympus).

[2] = system: loricrin (Lor); experiment: Immunohistochemical analysis of skin of NC/Nga mice; format: in vivo; conditions: topical treatment for 5 weeks, vs Vaseline
Protocol: (§1) Vaseline or fucoxanthin and PiCl were applied to the mice in the same manner as described in Example 2. At 5 weeks after starting application of Vaseline or fucoxanthin, the mice were sacrificed the mice skins were fixed with 4% paraformaldehyde and analyzed according to the method described in Kosaka, T. et al. (supra). The skin section (10 μm thick) was analyzed immunohistochemically using a rabbit anti-filaggrin antibody (Santa Cruz Biotechnology, Inc.) and a rabbit anti-loricrin antibody (Covance). Then, the sample was reacted with an FITC-conjugated anti-rabbit IgG IgG (Santa Cruz Biotechnology, Inc.).

[3] = system: filaggrin (Flg); experiment: as above; format: in vivo; conditions: topical treatment for 5 weeks, vs Vaseline
Protocol: as §1

[4] = system: Cebpα; experiment: Real time PCR gene expression in bone marrow cells cultured with IL-3; format: cell-based, mice; conditions: vs DMSO
Protocol: (§2) Bone marrow cells obtained from 8-week-old female mice was cultured in a medium for conditioning containing IL-3. On the day the bone marrow cells were obtained (day 0), 10 μM fucoxanthin or dimethyl sulfoxide (DMSO) as a control was added to the culture solution and the cells were cultured for 1, 2, 3 or 4 weeks. Quantitative real time PCR was performed according to the method described in Kosaka et al. (supra). Five different cDNA pool dilutions were used for the experiments. The expression levels of PCR products were normalized to that of a housekeeping gene, GAPDH or β-actin, and the measured values were compared with cycle threshold value (Ct value). The primers used are shown below.
(§3) The housekeeping genes GAPDH and β-actin were used for normalization as internal standards. All measurements were performed 4 times.

[5] = system: PU.1; experiment: as above; format: cell-based, mice; conditions: 10 μM added day 0, cultured 1-4 weeks, vs DMSO
Protocol: as §2, §3

[6] = system: GATA-1; experiment: as above; format: cell-based, mice; conditions: 10 μM added day 0, cultured 1-4 weeks, vs DMSO
Protocol: as §2, §3

[7] = system: Mitf1; experiment: as above; format: cell-based, mice; conditions: 10 μM added day 0, cultured 1-4 weeks, vs DMSO
Protocol: as §2, §3

[8] = system: FcεRIα; experiment: as above; format: cell-based, mice; conditions: 10 μM added day 0, cultured 1-4 weeks, vs DMSO
Protocol: as §2, §3

[9] = system: histidine decarboxylase (Hdc); experiment: as above; format: cell-based, mice; conditions: 10 μM added day 0, cultured 1-4 weeks, vs DMSO
Protocol: as §2, §3

[10] = system: GATA-2; experiment: as above; format: cell-based, mice; conditions: 10 μM added day 0, cultured 1-4 weeks, vs DMSO
Protocol: as §2, §3

[11] = system: bone marrow-derived mast cells (BMMCs); experiment: Degranulation of BMMCs, β-hexosaminidase release after anti-DNP-IgE / DNP-HSA stimulation; format: cell-based, mice; conditions: pre-treated with 0.1 μM, 1 μM or 10 μM before DNP-HSA stimulation, vs DMSO
Protocol: The degranulation of BMMCs was evaluated by measuring β-hexosaminidase activity in the culture solution of the mature mast cells. Bone marrow cells obtained from 8-week-old female mice were cultured in a medium for conditioning containing interleukin-3 (IL-3) for 4 weeks to give mature mast cells. The mature mast cells thus prepared were cultured in 24-well plate (5×10^3 cells/well) overnight, and sensitized with 50 ng/mL anti-DNP-IgE (Sigma Chemicals) at 37° C. for 2 hours. The cells were rinsed by MT buffer (137 mmol/L NaCl, 2.7 mmol/L KCl, 1.8 mmol/L CaCl2, 1 mmol/L MgCl2.6H2O, 5.6 mmol/L glucose, 20 mmol/L HEPES, 0.1% BSA, pH7.3), and pre-treated with 0.1 μM, 1 μM or 10 μM fucoxanthin, or dimethyl sulfoxide (DMSO) for 10 minutes. Then, the cells were treated with 2.5 μg/mL DNP-labeled human serum albumin (Sigma Chemicals) at 37° C. for 30 minutes. After incubation, the supernatant was transferred to a 96-well plate and incubated with 3.3 mM p-nitrophenyl-2-acetamide-2-deoxy-β-glucopyranoside at 37° C. for 25 minutes. Absorbance at 405 nm was measured using microplate reader. The results are shown as percentage of total β-hexosaminidase.

[12] = system: GATA-luc; experiment: Luciferase reporter assay in HEK293 cells; format: cell-based; conditions: HEK293, treated 3 hours after transfection for 48 hours, vs DMSO (fucoxanthin 0.1, 1, 10 μM)
Excerpt: The plasmids pGL3-Cebpα promoter-luc and pGL3-Mitf1 promoter-luc were provided by Dr. Hua Huang (University of Colorado school, Denver, USA). The plasmid NF-κB-luc was purchased from Agilent Technologies (Santa Clara, Calif.). The GATA-responsive reporter vector was provided by Dr. Ishijima (Takasaki University of Health and welfare, Gunma, Japan). Three GATA motifs from mouse α-1 globulin gene (5′-TGATAA-3′) were tandemly inserted into Sma I site of pRBGP3. HDC promoter was provided by Dr. Ootsu (Tohoku University school of Medicine, Sendai, Japan) and cloned into Kpn I-Hind III site of pGL4.10 (Hdc promoter-luc). The reporter assay was performed according to the method described in Kanatani, N. et al. Briefly, HEK293 cells were transfected with each of the luciferase constructs (0.2 μg) or pRL-CMV (Promega, Madison, Wis.) (0.001 μg). At 3 hours after transfection, the cells were treated with fucoxanthin (0.1 μM, 1 μM or 10 μM) or DMSO for 48 hours and reporter assay was performed using Dual-Luciferase® Reporter Assay System (Promega). Luciferase activity was measured using luminometer model TD20/20n (Turner BioSystems, Sunnyvale, Calif.) and normalized to Renilla luciferase activity expressed by CMV promoter.
GATA-reporter assay was performed using HEK293 cells expressing GATA-luc prepared in Example 8, in the same manner as described in Example 8 except using various carotenoids (fucoxanthin, astaxanthin, lycopene, β-carotene or retinoic acid) in place of fucoxanthin.

Compound: CC(=O)O[C@H]1CC(C)(C)C(=C=C/C(C)=C/C=C/C(C)=C/C=C/C=C(C)/C=C/C=C(\C)C(=O)C[C@@]23O[C@]2(C)C[C@@H](O)CC3(C)C)[C@](C)(O)C1 [fucoxanthin]
- number of toluidine blue (TB)-positive cells in skin [1]: remarkably lower
- loricrin expression in the epidermis (immunohistochemistry) [2]: elevated; also recorded: distributed in the whole skin
- filaggrin expression in the epidermis (immunohistochemistry) [3]: elevated; also recorded: abundantly localized in the stratum corneum
- expression of Cebpα, 3 to 4 weeks ([4]; 10 μM added day 0, 3 to 4 weeks after starting culture): remarkably upregulated
- expression of Cebpα, first 2 weeks ([4]; 10 μM added day 0, first 2 weeks of culture): downregulated
- expression of PU.1 [5]: did not change significantly
- expression of GATA-1 [6]: downregulated
- expression of Mitf1 [7]: did not change significantly
- expression of FcεRIα [8]: downregulated
- expression of Hdc [9]: downregulated
- expression of GATA-2 [10]: downregulated
- release of β-hexosaminidase (degranulation) [11]: suppressed release of β-hexosaminidase in a dose-dependent manner
- GATA-luc expression [12]: downregulated
